Where two headings read alike, the source gives them in different places.
System: boar spermatozoa
Test: Toxicity evaluation by motility of boar spermatozoa (Qualisperm)
Format: cell-based
Settings: 30 minutes incubation, around 60 million/ml boar spermatozoa
Description: Quadruple samples of each test compound were prepared in varying concentrations by serial dilution in a 96 microwell-plate by serial dilution into XCell with DMSO. Equal volumes (50 μl) of boar spermatozoa in a concentration of around 60 million/ml were added to all sample solutions. Subsequently, the microwell plate was shaken and incubated for 30 minutes. The dosing was performed by using an automated TECAN® robot. After the incubation the sample solutions were pipetted on a Leja® slide and the motility of the spermatozoa was analysed using a Qualisperm® apparatus from Biophos AG. A dose response curve was obtained where % motile spermatozoa (all the moving spermatozoa), % progressive spermatozoa (share of spermatozoa above a pre-determined threshold, here: above 25 μm/sec), or mean speed of total motile spermatozoa was plotted as a function of the logarithmic concentration of the test compound expressed in mM. From the dose curve IC50 values were calculated.

CC(C)C(=O)Nc1ccc([N+](=O)[O-])c(C(F)(F)F)c1 [Flutamide]
IC50 (0.5 h, % motile spermatozoa (all moving spermatozoa), read-out: IC50 % motille): 95 µM
IC50 (0.5 h, % progressive spermatozoa (above 25 μm/sec), read-out: IC50 % progressiv): 62 µM
IC50 (0.5 h, mean speed of total motile spermatozoa, read-out: IC50 mean speed): 72 µM

CC(=O)N1CCN(c2ccc(OCC3COC(Cn4ccnc4)(c4ccc(Cl)cc4Cl)O3)cc2)CC1 (stereo not drawn) [Ketokonazole, Ketoconazole]
IC50 (% motile spermatozoa (all moving spermatozoa), read-out: IC50 % motille): 209 µM
IC50 (% progressive spermatozoa (above 25 μm/sec), read-out: IC50 % progressiv): 205 µM
IC50 (mean speed of total motile spermatozoa, read-out: IC50 mean speed): 197 µM
